The text below walks through data of article PMC7468108 (Communications Biology, 2020).

One assay deals with T1, Aβ42 (Homo sapiens, UniProt P05067).
T1 construct: purchased rPeptide (USA)
The assay is described as follows: ThT-binding assay, inhibition of Aβ42 aggregation. It is filed as biochemical. The following applies: any molar ratio (5:1, 1:1, 1:5). As for the experimental part:
ThT is known to intercalate within the amyloid fibrils resulting in fluorescence emission proportionate to the amyloid growth.
(§1) The resulting thin films were dissolved in PBS (100 mM, pH 7.4) and sonicated for 5 min to get a stock concentration of 50 µM, which immediately diluted to required concentration for an experiment. Stock solutions of ThT (4 mM in PBS) and hybrid molecules (10 mM in PBS) were prepared. All the stock solutions were diluted according to the requirement.
The experiment was performed according to the previous report. […] […] Excitation and emission wavelengths were set at 440 nm and 485 nm, respectively.

For a further assay, the target named is T2, hIAPP (Homo sapiens, UniProt P10997).
T2 construct: hIAPP is a 37-amino acid neuroendocrine peptide hormone; purchased Peptide 2.0 (USA)
T2 sequence (P10997 34-70 limits assumed): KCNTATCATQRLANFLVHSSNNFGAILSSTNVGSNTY
Nature of the assay: ThT-binding assay, inhibition of hIAPP aggregation. Format: biochemical. The following applies: molar ratios 5:1, 1:1, 1:5. On the procedure: A similar inhibitory effect by the hybrid molecules was found toward hIAPP aggregation. […] Upon co-incubation of hIAPP with the hybrid molecules, a dose-response inhibition of hIAPP fibril formation was observed (Fig. 2d, e and Supplementary Fig. 3). […] Also, for IAPP, the marginally stronger inhibitory effect of WGalNAc was statistically significant (Supplementary Fig. 2b).
as §1
The experiment was performed according to the previous report. […] Kinetics fluorescence data were collected at 37 °C in triplicate using Infinite M200 microplate reader (Tecan, Switzerland), with measurements acquired at 15 min intervals. Excitation and emission wavelengths were set at 440 nm and 485 nm, respectively.

T1 sequence (P05067 672-713 limits assumed): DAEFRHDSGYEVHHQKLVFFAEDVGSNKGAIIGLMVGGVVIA

On to `N[C@@H](Cc1c[nH]c2ccccc12)C(=O)O` [tryptophan], for which the “inhibition of Aβ42 fibril formation (ThT), in words” value at Aβ42 was “no inhibition effect”. For the same compound, the “inhibition of hIAPP fibril formation (ThT), in words” value on hIAPP was “No inhibitory effect”.
As for `N[C@@H]1O[C@H](CO)[C@H](O)[C@H](O)[C@H]1O` [galactosylamine, 1-amino-1-deoxy-β-D-galactose], at Aβ42, the “inhibition of Aβ42 fibril formation (ThT), in words” value was “no inhibition effect”. In addition, at hIAPP, the “inhibition of hIAPP fibril formation (ThT), in words” value is “No inhibitory effect”.
